Measured values reported in PubChem BioAssay (NCI).
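How tested: cells in 96-well plates exposed to compound for 48 hours at five concentrations. Abbreviation: GI50, concentration required for 50% inhibition of growth. TGI: concentration producing complete growth inhibition.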

Assays:
Experiment in all cases: NCI-60 cell line screen, 48 h
[1] = system: 786-0 renal
[2] = system: A498 renal
[3] = system: A549 NSCLC
[4] = system: ACHN renal
[5] = system: CAKI-1 renal
[6] = system: CCRF-CEM leukemia
[7] = system: COLO 205 colon
[8] = system: DU-145 prostate
[9] = system: EKVX NSCLC
[10] = system: HCC-2998 colon
[11] = system: HCT-116 colon
[12] = system: HCT-15 colon
[13] = system: HL-60(TB) leukemia
[14] = system: HOP-62 NSCLC
[15] = system: HOP-92 NSCLC
[16] = system: HS 578T breast
[17] = system: HT29 colon
[18] = system: IGROV1 ovarian
[19] = system: K-562 leukemia
[20] = system: KM12 colon
[21] = system: LOX IMVI melanoma
[22] = system: M14 melanoma
[23] = system: MALME-3M melanoma
[24] = system: MCF7 breast
[25] = system: MDA-MB-231 breast
[26] = system: MDA-MB-435
[27] = system: MDA-MB-468 breast
[28] = system: MOLT-4 leukemia
[29] = system: NCI-H226 lung
[30] = system: NCI-H23 lung
[31] = system: NCI-H460 lung
[32] = system: NCI-H522 lung
[33] = system: OVCAR-3 ovarian
[34] = system: OVCAR-4 ovarian
[35] = system: OVCAR-5 ovarian
[36] = system: OVCAR-8 ovarian
[37] = system: PC-3 prostate
[38] = system: RPMI-8226 leukemia
[39] = system: RXF 393 renal
[40] = system: SF-268 CNS
[41] = system: SF-295 CNS
[42] = system: SF-539 CNS
[43] = system: SK-MEL-2 melanoma
[44] = system: SK-MEL-28 melanoma
[45] = system: SK-MEL-5 melanoma
[46] = system: SK-OV-3 ovarian
[47] = system: SN12C renal
[48] = system: SNB-19 CNS
[49] = system: SNB-75 CNS
[50] = system: SR leukemia
[51] = system: SW-620 colon
[52] = system: T-47D breast
[53] = system: TK-10 renal
[54] = system: U251 CNS
[55] = system: UACC-257 melanoma
[56] = system: UACC-62 melanoma
[57] = system: UO-31 renal

CN1CCCN(Cc2ccc(C(=O)Nc3cccc(Nc4ccc5cc(O)ccc5n4)c3)cc2C(F)(F)F)CC1
GI50 [1]: 16 µM
TGI [1]: 30.1 µM
GI50 [2]: 17.6 µM
TGI [2]: 32 µM
GI50 [3]: 16.2 µM
TGI [3]: 33.1 µM
GI50 [4]: 19.7 µM
TGI [4]: 38.4 µM
GI50 [5]: 14.1 µM
TGI [5]: 27.8 µM
GI50 [6]: 4.94 µM
TGI [6]: 25.7 µM
GI50 [7]: 18.5 µM
TGI [7]: 33.3 µM
GI50 [8]: 16.9 µM
TGI [8]: 30.6 µM
GI50 [9]: 16 µM
TGI [9]: 31.3 µM
GI50 [10]: 16.5 µM
TGI [10]: 30.5 µM
GI50 [11]: 6.51 µM
TGI [11]: 22.1 µM
GI50 [12]: 16.4 µM
TGI [12]: 33.9 µM
GI50 [13]: 11.9 µM
TGI [13]: 31.8 µM
GI50 [14]: 17.8 µM
TGI [14]: 31.8 µM
GI50 [15]: 10.4 µM
TGI [15]: 23.3 µM
GI50 [16]: 14.8 µM
TGI [16]: 50.2 µM
GI50 [17]: 13.3 µM
TGI [17]: 28.8 µM
GI50 [18]: 17.2 µM
TGI [18]: 32 µM
GI50 [19]: 1.18 µM
TGI [19]: 4.54 µM
GI50 [20]: 14.1 µM
TGI [20]: 28.1 µM
GI50 [21]: 12.1 µM
TGI [21]: 25 µM
GI50 [22]: 12.7 µM
TGI [22]: 27.8 µM
GI50 [23]: 12.6 µM
TGI [23]: 25.6 µM
GI50 [24]: 9.83 µM
TGI [24]: 24.7 µM
GI50 [25]: 13.9 µM
TGI [25]: 27.5 µM
GI50 [26]: 10.4 µM
TGI [26]: 22.1 µM
GI50 [27]: 8.88 µM
TGI [27]: 21.6 µM
GI50 [28]: 2.05 µM
TGI [28]: 14.5 µM
GI50 [29]: 13.8 µM
TGI [29]: 28.9 µM
GI50 [30]: 16.8 µM
TGI [30]: 32.1 µM
GI50 [31]: 18 µM
TGI [31]: 36.7 µM
GI50 [32]: 17 µM
TGI [32]: 32 µM
GI50 [33]: 16.3 µM
TGI [33]: 29.9 µM
GI50 [34]: 15 µM
TGI [34]: 30 µM
GI50 [35]: 15.3 µM
TGI [35]: 31 µM
GI50 [36]: 18.9 µM
TGI [36]: 37.2 µM
GI50 [37]: 13.1 µM
TGI [37]: 28.5 µM
GI50 [38]: 11.4 µM
TGI [38]: 35.9 µM
GI50 [39]: 12.5 µM
TGI [39]: 26.1 µM
GI50 [40]: 17.3 µM
TGI [40]: 36.1 µM
GI50 [41]: 17.3 µM
TGI [41]: 33.4 µM
GI50 [42]: 11.3 µM
TGI [42]: 24 µM
GI50 [43]: 17.2 µM
TGI [43]: 31.8 µM
GI50 [44]: 13.9 µM
TGI [44]: 29 µM
GI50 [45]: 16.1 µM
TGI [45]: 29.6 µM
GI50 [46]: 17.6 µM
TGI [46]: 32 µM
GI50 [47]: 17.3 µM
TGI [47]: 31.7 µM
GI50 [48]: 17 µM
TGI [48]: 31.7 µM
GI50 [49]: 1.17 µM
TGI [49]: 16.7 µM
GI50 [50]: 1.89 µM
TGI [50]: 5.3 µM
GI50 [51]: 14.5 µM
TGI [51]: 28.9 µM
GI50 [52]: 15.8 µM
TGI [52]: 33.3 µM
GI50 [53]: 18.5 µM
TGI [53]: 32.8 µM
GI50 [54]: 14.8 µM
TGI [54]: 30.6 µM
GI50 [55]: 14.7 µM
TGI [55]: 29.1 µM
GI50 [56]: 15.9 µM
TGI [56]: 30 µM
GI50 [57]: 15.2 µM
TGI [57]: 29.7 µM
